Experimental data: PubChem BioAssay AID2060605 (Molecular Pharmacology Branch, DTP, NCI, 2025)

Test system: 947758-054-R-J2-PDC spheroid growth, percent test/control
Assay: Anticancer human tumor 947758-054-R-J2-PDC patient-derived colon adenocarcinoma cell line growth inhibition [CLK]
Settings: spheroids with HUVEC and MSC; for IC50: curve of first compound; for viability, T/C: stronger effect = lower value
Method in brief: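 Patient-derived tumor cells grown as complex spheroids with HUVEC endothelial cells and mesenchymal stem cells, treated with drug combinations. Concentrations descend in half-log steps from near clinical Cmax, or from 10 microM if Cmax unknown.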

[1] = second compound 0.0316 µM, first compound 0.0316 µM
[2] = second compound 0.0316 µM, first compound 0.1 µM
[3] = second compound 0.0316 µM, first compound 0.316 µM
[4] = second compound 0.0316 µM, first compound 1 µM
[5] = second compound 0.0316 µM, first compound 3.16 µM
[6] = second compound 0.0316 µM, first compound 10 µM
[7] = second compound 0.1 µM, first compound 0.0316 µM
[8] = second compound 0.1 µM, first compound 0.1 µM
[9] = second compound 0.1 µM, first compound 0.316 µM
[10] = second compound 0.1 µM, first compound 1 µM
[11] = second compound 0.1 µM, first compound 3.16 µM
[12] = second compound 0.1 µM, first compound 10 µM
[13] = second compound 0.316 µM, first compound 0.0316 µM
[14] = second compound 0.316 µM, first compound 0.1 µM
[15] = second compound 0.316 µM, first compound 0.316 µM
[16] = second compound 0.316 µM, first compound 1 µM
[17] = second compound 0.316 µM, first compound 3.16 µM
[18] = second compound 0.316 µM, first compound 10 µM
[19] = second compound 1 µM, first compound 0.0316 µM
[20] = second compound 1 µM, first compound 0.1 µM
[21] = second compound 1 µM, first compound 0.316 µM
[22] = second compound 1 µM, first compound 1 µM
[23] = second compound 1 µM, first compound 3.16 µM
[24] = second compound 1 µM, first compound 10 µM
[25] = second compound 3.16 µM, first compound 0.0316 µM
[26] = second compound 3.16 µM, first compound 0.1 µM
[27] = second compound 3.16 µM, first compound 0.316 µM
[28] = second compound 3.16 µM, first compound 1 µM
[29] = second compound 3.16 µM, first compound 3.16 µM
[30] = second compound 3.16 µM, first compound 10 µM
[31] = second compound 10 µM, first compound 0.0316 µM
[32] = second compound 10 µM, first compound 0.1 µM
[33] = second compound 10 µM, first compound 0.316 µM
[34] = second compound 10 µM, first compound 1 µM
[35] = second compound 10 µM, first compound 3.16 µM
[36] = second compound 10 µM, first compound 10 µM
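Note: spheroids exposed to compounds for one week before readout.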
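Throughout, for viability, T/C: 100% = DMSO vehicle control wells.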

CCCS(=O)(=O)Nc1ccc(F)c(C(=O)c2c[nH]c3ncc(-c4ccc(Cl)cc4)cc23)c1F + CNC(=O)c1ccc(Nc2nc(OC3CCCC3)c3c(-c4ccc5nc(C)oc5c4)c[nH]c3n2)c(OC)c1
IC50 (second compound 0.0316 µM): < 31.6 nM | IC50 (second compound 0.1 µM): < 31.6 nM | IC50 (second compound 0.316 µM): 32.6 nM | IC50 (second compound 1 µM): < 31.6 nM | IC50 (second compound 3.16 µM): < 31.6 nM | IC50 (second compound 10 µM): < 31.6 nM | viability, T/C [1]: 39.4% | viability, T/C [2]: 44.1% | viability, T/C [3]: 31.6% | viability, T/C [4]: 53.5% | viability, T/C [5]: 47.7% | viability, T/C [6]: 31.5% | viability, T/C [7]: 45.5% | viability, T/C [8]: 37.9% | viability, T/C [9]: 29% | viability, T/C [10]: 28.2% | viability, T/C [11]: 24.6% | viability, T/C [12]: 17.2% | viability, T/C [13]: 50.4% | viability, T/C [14]: 33.6% | viability, T/C [15]: 18.8% | viability, T/C [16]: 22.5% | viability, T/C [17]: 23.9% | viability, T/C [18]: 11.2% | viability, T/C [19]: 37.6% | viability, T/C [20]: 25.5% | viability, T/C [21]: 16.9% | viability, T/C [22]: 13.6% | viability, T/C [23]: 14.4% | viability, T/C [24]: 4.09% | viability, T/C [25]: 30.2% | viability, T/C [26]: 20.7% | viability, T/C [27]: 15.7% | viability, T/C [28]: 13.1% | viability, T/C [29]: 10% | viability, T/C [30]: 4.82% | viability, T/C [31]: 24.2% | viability, T/C [32]: 20.9% | viability, T/C [33]: 14.4% | viability, T/C [34]: 13.6% | viability, T/C [35]: 9.07% | viability, T/C [36]: 4.26%

COC1C=CCC(C)C(C)S(=O)(=O)NC(=O)c2ccc3c(c2)N(CC2CCC21)CC1(CCCc2cc(Cl)ccc21)CO3 (centres undefined) + CNC(=O)c1ccc(Nc2nc(OC3CCCC3)c3c(-c4ccc5nc(C)oc5c4)c[nH]c3n2)c(OC)c1
IC50 (second compound 0.0316 µM): 7660 nM | IC50 (second compound 0.1 µM): 5300 nM | IC50 (second compound 0.316 µM): < 31.6 nM | IC50 (second compound 1 µM): < 31.6 nM | IC50 (second compound 3.16 µM): < 31.6 nM | IC50 (second compound 10 µM): < 31.6 nM | viability, T/C [1]: 75.6% | viability, T/C [2]: 83.8% | viability, T/C [3]: 90.3% | viability, T/C [4]: 116% | viability, T/C [5]: 95.3% | viability, T/C [6]: 37.3% | viability, T/C [7]: 73.4% | viability, T/C [8]: 71.2% | viability, T/C [9]: 55.5% | viability, T/C [10]: 65.1% | viability, T/C [11]: 72.1% | viability, T/C [12]: 28.5% | viability, T/C [13]: 61.8% | viability, T/C [14]: 53.6% | viability, T/C [15]: 37.2% | viability, T/C [16]: 44.1% | viability, T/C [17]: 49.2% | viability, T/C [18]: 16.7% | viability, T/C [19]: 37.5% | viability, T/C [20]: 36.1% | viability, T/C [21]: 24.4% | viability, T/C [22]: 29.5% | viability, T/C [23]: 26.4% | viability, T/C [24]: 12.4% | viability, T/C [25]: 28.3% | viability, T/C [26]: 24.4% | viability, T/C [27]: 21.8% | viability, T/C [28]: 18.2% | viability, T/C [29]: 18.1% | viability, T/C [30]: 15.3% | viability, T/C [31]: 29.4% | viability, T/C [32]: 23.3% | viability, T/C [33]: 13.2% | viability, T/C [34]: 15.4% | viability, T/C [35]: 10.6% | viability, T/C [36]: 13.5%
